In brackets after ≈: the same amount, converted by molar mass.
Legend:
[1] = parameters: method as in PMID 22155815, PMID 34370588; conditions: in vitro; cited from earlier work
[2] = parameters: method as in PMID 22155815; conditions: oral route; cited from earlier work
mycobacteria = conditions: cited from earlier work
[3] = parameters: method as in PMID 35112802; conditions: TargoSphere platform; cited from earlier work
[4] = tested on: Mtb H37Rv in murine bone marrow-derived macrophages; assay: in vitro antitubercular activity in infected murine bone marrow-derived macrophages; assay type: cell-based, Mycobacterium tuberculosis; conditions: primary BMDM infected with H37Rv; doses 1 and 0.1 μg/mL
[5] = estimated; cited from earlier work
H37Rv strain of Mtb = tested on: H37Rv strain of Mtb; parameters: method as in PMID 22155815; conditions: cited from earlier work
[6] = tested on: mycobacterial ATP synthase; parameters: method as in PMID 20521931; conditions: selectivity; cited from earlier work
[7] = estimated; 25 °C; cited from earlier work
[8] = cited from earlier work
[9] = coadministration with high-fat meals

Structure (SMILES): CNCCC(O)(c1cccc2ccccc12)C(c1ccccc1)c1cc2cc(Br)ccc2nc1OC (stereo not drawn) [M2, N-desmethyl-bedaquiline]
- cytotoxicity and phospholipidogenesis [1]: higher cytotoxicity and phospholipidogenesis
- AUCLung:AUCplasma ratio [2]: 100–200
- antimycobacterial activity, fold lower than BDQ (mycobacteria): 4–6 fold

Structure (SMILES): C[C@H]1COc2c(N3CCN(C)CC3)c(F)cc3c(=O)c(C(=O)O)cn1c23 [levofloxacin]
- encapsulation efficiency [3]: 66–80%

Structure (SMILES): COc1nc2ccc(Br)cc2cc1[C@@H](c1ccccc1)[C@@](O)(CCN(C)C)c1cccc2ccccc12 [BDQ, Bedaquiline]
- reduction in CFU/mL [4]: significant reductions in CFU/mL
- logP [5]: 7.74
- minimum bactericidal concentration (MBC) (H37Rv strain of Mtb): 0.3 µg/mL (≈ 0.54 µM)
- minimum inhibitory concentration (MIC) (H37Rv strain of Mtb): 0.06 µg/mL (≈ 0.108 µM)
- loading capacity [3]: 5–7 % of the total mass
- higher affinity for mycobacterial ATP synthase versus eukaryotic ATP synthase [6]: > 20,000
- solubility in aqueous media [7]: 2 ng/mL (≈ 0.0036 µM)
- bioavailability ([8]; administered orally): high bioavailability
- median tmax ([8]; administered orally): ~5 h
- increase of AUC with food [8, 9]: 2 fold
- increase of Cmax with food [8, 9]: 2 fold
- protein binding ([8]; in vivo): > 99%
- terminal elimination half-life ([8]; in vivo): 4–5 months
- volume of distribution ([8]; in vivo): 164 L

From paper PMC11406518, “Intranasal Administration of Bedaquiline-Loaded Fucosylated Liposomes Provides Anti-Tubercular Activity while Reducing the Potential for Systemic Side Effects” (ACS Infectious Diseases, 2024)
